molecular target: AM2 S31N (serine→asparagine mutation at residue 31 in the M2 protein) (Influenza A virus, UniProt P0DOF5, S31N); type: cell-based, influenza virus A/Udorn/72; conditions: not given

Row | Compound | S31N OOcyte Inhibition at 100 uM (%)
1 | c1c(CNC23CC4CC(CC(C4)C2)C3)noc1CN1CCOCC1 [Example 106a, N-((5-(morpholinomethyl)isoxazol-3-yl)methyl)adamantan-1-amine] | B (key: (A)=31-95%; (B)=0-30%)
2 | c1cc(C2CC2)ccc1CNC12CC3CC(CC(C3)C1)C2 [Example 9a, N-(4-Cyclopropylbenzyl)adamantan-1-amine] | A (key: (A)=31-95%; (B)=0-30%)
3 | c1csc(-c2ccc(CNC34CC5CC(CC(C5)C3)C4)o2)c1 [Example 138a, Adamantan-1-yl-(5-thiophen-2-yl-furan-2-ylmethyl)-amine] | A (key: (A)=31-95%; (B)=0-30%)
4 | Clc1ccc2[nH]c(CNC34CC5CC(CC(C5)C3)C4)nc2c1 [Example 181a, Adamantan-1-yl-(5-chloro-1H-benzoimidazol-2-ylmethyl)-amine] | A (key: (A)=31-95%; (B)=0-30%)
5 | Cc1cccc2nc(CNC34CC5CC(CC(C5)C3)C4)[nH]c12 [Example 184a, Adamantan-1-yl-(7-methyl-1H-benzoimidazol-2-ylmethyl)-amine] | A (key: (A)=31-95%; (B)=0-30%)
6 | CC(C)(C)c1ccc(-c2noc(CNC34CC5CC(CC(C5)C3)C4)n2)cc1 [Example 124a, N-((3-(4-(tert-butyl)phenyl)-1,2,4-oxadiazol-5-yl)methyl)adamantan-1-amine] | B (key: (A)=31-95%; (B)=0-30%)
7 | OC12CC3CC(C1)CC(NCc1ccc(Cl)s1)(C3)C2 [Example 189a, 3-[(5-Chloro-thiophen-2-ylmethyl)-amino]adamantan-1-ol] | B (key: (A)=31-95%; (B)=0-30%)
8 | c1c(CNC23CC4CC(CC(C4)C2)C3)noc1C1CC1 [Example 107a, N-((5-cyclopropylisoxazol-3-yl)methyl)adamantan-1-amine] | A (key: (A)=31-95%; (B)=0-30%)
9 | Fc1ccc(-c2nc(CNC34CC5CC(CC(C5)C3)C4)no2)cc1 [Example 163a] | A (key: (A)=31-95%; (B)=0-30%)
10 | Cc1oc(-c2cccs2)nc1CNC12CC3CC(CC(C3)C1)C2 [Example 145a, N-((5-methyl-2-(thiophen-2-yl)oxazol-4-yl)methyl)adamantan-1-amine] | B (key: (A)=31-95%; (B)=0-30%)
11 | CSc1ccc(CNC23CC4CC(CC(C4)C2)C3)s1 [Example 90a] | A (key: (A)=31-95%; (B)=0-30%)
12 | Clc1ccc(-c2cc(CNC34CC5CC(CC(C5)C3)C4)no2)cc1 [Example 119a, N-((5-(4-chlorophenyl)isoxazol-3-yl)methyl)adamantan-1-amine] | A (key: (A)=31-95%; (B)=0-30%)
13 | Cc1ccc(-c2cc(CNC34CC5CC(CC(C5)C3)C4)no2)cc1 [Example 120a, N-((5-(p-tolyl)isoxazol-3-yl)methyl)adamantan-1-amine] | A (key: (A)=31-95%; (B)=0-30%)
14 | OC12CC3CC(C1)CC(NCc1cc4cc(Br)sc4s1)(C3)C2 [Example 195a, 3-[(5-Bromo-thieno[2,3-b]thiophen-2-ylmethyl)-amino]-adamantan-1-ol] | A (key: (A)=31-95%; (B)=0-30%)
15 | COc1ccc(-c2nc(CNC34CC5CC(CC(C5)C3)C4)no2)cc1 [Example 126a, N-((5-(4-methoxyphenyl)-1,2,4-oxadiazol-3-yl)methyl)adamantan-1-amine] | A (key: (A)=31-95%; (B)=0-30%)

same assay, conditions: pH 5.5

Row | Compound | S31N OOcyte Inhibition at 100 uM (%)
16 | Oc1cc(Cl)ccc1CNC12CC3CC(CC(C3)C1)C2 [Example 9b, 2-((-Adamantan-1-ylamino)methyl)-5-chlorophenol] | A (key: (A)=31-95%; (B)=0-30%)
17 | CN(C)c1ncc(CNC23CC4CC(CC(C4)C2)C3)cn1 [Example 59b, N-((2-dimethylaminopyrimidin-5-yl)methyl)adamantan-1-amine] | A (key: (A)=31-95%; (B)=0-30%)
18 | CC(NC12CC3CC(CC(C3)C1)C2)c1ccc(C(C)(C)C)cc1 (stereo not shown) [Example 3b, N-(1-(4-(tert-butyl)phenyl)ethyl)adamantan-1-amine] | B (key: (A)=31-95%; (B)=0-30%)
19 | c1nc(N2CCOCC2)ncc1CNC12CC3CC(CC(C3)C1)C2 [Example 57b, N-((2-morpholinopyrimidin-5-yl)methyl)adamantan-1-amine] | A (key: (A)=31-95%; (B)=0-30%)
20 | CSc1ccc(-c2cc(CNC34CC5CC(CC(C5)C3)C4)no2)cc1 [Example 37b, N-((5-(4-(methylthio)phenyl)isoxazol-3-yl)methyl)adamantan-1-amine] | A (key: (A)=31-95%; (B)=0-30%)
21 | c1nc(N2CCCCC2)ncc1CNC12CC3CC(CC(C3)C1)C2 [Example 58b, N-((2-(piperidin-1-yl)pyrimidin-5-yl)methyl)adamantan-1-amine] | A (key: (A)=31-95%; (B)=0-30%)
22 | CC(C)Cc1nc(CNC23CC4CC(CC(C4)C2)C3)no1 [Example 22b, N-((5-isobutyl-1,2,4-oxadiazol-3-yl)methyl)adamantan-1-amine] | A (key: (A)=31-95%; (B)=0-30%)
23 | CCOC(=O)CN(C)c1ncc(CNC23CC4CC(CC(C4)C2)C3)cn1 [Example 60b, N-((2-methyl(ethylcarboxymethyl)aminopyrimidin-5-yl)methyl)adamantan-1-amine] | A (key: (A)=31-95%; (B)=0-30%)
24 | CC(C)(C)c1ncc(CNC23CC4CC(CC(C4)C2)C3)s1 [Example 20b, N-((2-(tert-butyl)thiazol-5-yl)methyl)adamantan-1-amine] | A (key: (A)=31-95%; (B)=0-30%)
25 | COc1ccccc1-c1nc(CNC23CC4CC(CC(C4)C2)C3)no1 [Example 15b, N-((5-(2-methoxyphenyl)-1,2,4-oxadiazol-3-yl)methyl)adamantan-1-amine] | A (key: (A)=31-95%; (B)=0-30%)
26 | COCc1nc(CNC23CC4CC(CC(C4)C2)C3)no1 [Example 23b, N-((5-(methoxymethyl)-1,2,4-oxadiazol-3-yl)methyl)adamantan-1-amine] | A (key: (A)=31-95%; (B)=0-30%)
27 | FC(F)(F)Oc1ccc(-c2cc(CNC34CC5CC(CC(C5)C3)C4)no2)cc1 [Example 36b, N-((5-(4-(trifluoromethoxy)phenyl)isoxazol-3-yl)methyl)adamantan-1-amine] | B (key: (A)=31-95%; (B)=0-30%)
28 | Clc1ccccc1-c1cc(CNC23CC4CC(CC(C4)C2)C3)no1 [Example 45b, N-((5-(2-chlorophenyl)isoxazol-3-yl)methyl)adamantan-1-amine] | A (key: (A)=31-95%; (B)=0-30%)
29 | OC12CC3CC(C1)CC(NCc1noc(C4CCCCC4)n1)(C3)C2 [Example 86b, (1s,3r,5R,7S)-3-(((5-cyclohexyl-1,2,4-oxadiazol-3-yl)methyl)amino)adamantan-1-ol] | A (key: (A)=31-95%; (B)=0-30%)
30 | CSc1ccccc1-c1ccc(CNC23CC4CC(CC(C4)C2)C3)cc1 [Example 66b, Adamantan-1-yl-(2′-methylsulfanyl-biphenyl-4-ylmethyl)-amine] | A (key: (A)=31-95%; (B)=0-30%)
31 | COc1ccsc1-c1cc(CNC23CC4CC(CC(C4)C2)C3)no1 [Example 44b, N-((5-(3-methoxythiophen-2-yl)isoxazol-3-yl)methyl)adamantan-1-amine] | A (key: (A)=31-95%; (B)=0-30%)
32 | Cc1ccc(-c2ccc(CNC34CC5CC(CC(C5)C3)C4)s2)o1 [Example 52b, N-((5-(5-Methylfuran-2-yl)thiophen-2-yl)methyl)adamantan-1-amine] | A (key: (A)=31-95%; (B)=0-30%)
33 | Cc1noc(C)c1-c1nc(CNC23CC4CC(CC(C4)C2)C3)no1 [Example 25b, N-((5-(3,5-dimethylisoxazol-4-yl)-1,2,4-oxadiazol-3-yl)methyl)adamantan-1-amine] | B (key: (A)=31-95%; (B)=0-30%)
34 | CC(C)c1cc(CNC23CC4CC(CC(C4)C2)C3)no1 [Example 27b, N-((5-isopropylisoxazol-3-yl)methyl)adamantan-1-amine] | A (key: (A)=31-95%; (B)=0-30%)
35 | Fc1cccc(F)c1-c1cc(CNC23CC4CC(CC(C4)C2)C3)no1 [Example 38b, N-((5-(2,6-difluorophenyl)isoxazol-3-yl)methyl)adamantan-1-amine] | A (key: (A)=31-95%; (B)=0-30%)
36 | COc1ccccc1-c1ccc(CNC23CC4CC(CC(C4)C2)C3)nc1 [Example 69b, Adamantan-1-yl-[5-(2-methoxy-phenyl)-pyridin-2-ylmethyl]-amine] | A (key: (A)=31-95%; (B)=0-30%)
37 | CSC(C)(C)Cc1cc(CNC23CC4CC(CC(C4)C2)C3)no1 [Example 46b, N-((5-(2-methyl-2-(methylthio)propyl)isoxazol-3-yl)methyl)adamantan-1-amine] | A (key: (A)=31-95%; (B)=0-30%)
38 | OC12CC3CC(C1)CC(NCc1noc(-c4ccccc4)n1)(C3)C2 [Example 84b, (1s,3r,5R,7S)-3-(((5-phenyl-1,2,4-oxadiazol-3-yl)methyl)amino)adamantan-1-61] | A (key: (A)=31-95%; (B)=0-30%)
39 | CCCc1cc(CNC23CC4CC(CC(C4)C2)C3)no1 [Example 26b, N-((5-propylisoxazol-3-yl)methyl)adamantan-1-amine] | A (key: (A)=31-95%; (B)=0-30%)
40 | Clc1ccc(CNC23CC4CC(CC(C4)C2)C3)cc1 [Example 1b, N-(4-Chlorobenzyl)adamantan-1-amine] | A (key: (A)=31-95%; (B)=0-30%)
41 | CCOc1ccc(-c2ccc(CNC34CC5CC(CC(C5)C3)C4)s2)cc1 [Example 49b, N-((5-(4-Ethoxyphenyl)thiophen-2-yl)methyl)adamantan-1-amine] | A (key: (A)=31-95%; (B)=0-30%)
42 | Oc1cc(I)ccc1CNC12CC3CC(CC(C3)C1)C2 [Example 2b] | A (key: (A)=31-95%; (B)=0-30%)
43 | CCSc1ncc(CNC23CC4CC(CC(C4)C2)C3)cn1 [Example 56b, N-((2-(ethylthio)pyrimidin-5-yl)methyl)adamantan-1-amine] | A (key: (A)=31-95%; (B)=0-30%)
